Measured values as given in patent US20250270170A1, “2,3-DIMETHOXY-5-METHYL-1,4-BENZOQUINONE ALKYL ALCOHOL DERIVATIVE AND USE THEREOF” (BEIJING ANJIANXI BIO-MEDICAL TECHNOLOGY CO., LTD., priority 2021, published 2025).
“And” between values parts separate entries of the source, which are not always exact repeats. Equal entries are not always repeated.

Columns and labels:
[1] = Solubility of the compound in organic solvents; type: physicochemical; settings: organic solvents (DMSO and isopropyl alcohol 3:7 selected)
Method: The containers with DMSO and isopropyl alcohol were opened in a biological safety cabinet. A 15 ml centrifuge tube was taken, and 3 ml of DMSO and 7 ml of isopropyl alcohol were added to make a mixed solvent. The molecular weight of the compound of formula (I) is 678.22 g/mol. 40.69 mg of an original drug of the compound of formula (I) was weighed, and 4 ml of the mixed solvent was added. The mixture was mixed well by pipetting. […] The solution was diluted according to the required concentration when being used.

NCI-H460 cells = assay: Cell EDU proliferation assay, NCI-H460; type: cell-based, human; settings: 150 μM
Method: The compound of formula (I) at a concentration of 150 μM was co-cultured with the cells for 42 h, and then the FBS concentration in the FBS stimulation well was increased to 20%. The cells were cultured for another 6 h, and then detected using a Cell-Light EDUApollo567 kit.
(1) Cells in the logarithmic growth phase were taken, and inoculated into a 24-well culture plate at 1×10^4 cells per well. The culture plate was cultured in a 37° C. incubator under the condition of 5% CO2, and drug was added according to the assay design when the cells adhered to the wall.
(2) After the drug treatment, the Cell-Light EDU Apollo567 kit was taken out. The reagent A in the kit was diluted with 1640 complete culture medium at a ratio of 1000:1 to prepare a 50 μM EDU culture medium, 300 μl of which was configured to each well of the 24-well plate. The 24-well plate was taken out from the incubator, and the original culture medium was aspirated with a vacuum aspirator. […]
(12) 150 μl of PBS was added to each well to wash once, and the PBS was discarded. Then, 200 μl of PBS was added, and the plate was placed on an inverted fluorescence microscope to take pictures. 6 fields of view were taken for each well under a 200× field of view, and the proportion of EDU-positive cells among 100 cells was calculated. […]

[2] = system: cisplatin-induced acute kidney damage in mice; assay: Example 11: serum urea nitrogen (Bun) in cisplatin-induced acute kidney damage model; type: in vivo, C57BL/6J mice; settings: for serum urea nitrogen value vs model group: P>0.05; for Urea nitrogen (Bun) level after the assay, x (mean): group mean; for Urea nitrogen (Bun) level after the assay, x (mean) / Urea nitrogen (Bun) level after the assay: cisplatin model; for Urea nitrogen (Bun) level after the assay: individual animals No. 1-7
Method: 42 male C57BL/6J mice (age: 6 to 8 weeks, body weight 18-20 g, certificate number: 11400700238365) were purchased from Si Pei Fu (Beijing) Biotechnology Co., Ltd., and raised in an SPF-grade animal room of the Institute of Materia Medica, Chinese Academy of Medical Sciences, at a temperature of 20 to 25° C., a relative humidity of 40% to 70%, and a cycle of 12 hours of light and 12 hours of dark. The animals had free access to water and food. After 3 days of normal feeding, mice with good physical conditions after the veterinary examination were selected for this assay. Before grouping, a marker was used to mark on the base of the animals' tail. After grouping, each animal was marked with an ear cutout (7 mice in each group).
Assay animals: 42 7-week-old male C57 mice were used for animal testing after an adaptive feeding.
Group 1: blank control group;
The preparation of the R01 formulation administration test solution was the same as that in Example 5: an appropriate amount of the R01 formulation was weighed according to the three dosages set in the assay, respectively, and an appropriate volume of 0.5% CMC-Na aqueous solution was added. The mixture was vortexed and sonicated until mixed evenly, to give the administration test solutions with concentrations of […], respectively, which were ready for use.
Animal testing period: 7 days (excluding adaptive feeding), hereinafter referred to as: D1-D7.
1. The first group was a solvent control group: N=7, all mice were males (the same below); • a) 0.5% solution of sodium carboxymethyl cellulose was gavagely administered from D1 to D6 (twice a day for each animal, with an interval of 8 hours between the morning and the afternoon). • b) Physiological saline was intraperitoneally injected in one-time on D4. • c) On D7, blood was collected from the orbit for euthanasia (300 ul of serum was extracted), the left kidney was fixed in formaldehyde, and the right kidney was preserved in liquid nitrogen (WB study may be carried out).
1) The concentrations of urea nitrogen and creatinine in peripheral blood serum were tested.
The body weight of the animals when being grouped for administration in each group was recorded. The body weight and the kidney weight at the end of the assay were also recorded, and the kidney coefficient was calculated. The creatinine and urea nitrogen values in the blood samples sent for testing were recorded. The kidneys were stained with HE and PAS, and the slides were scanned. A report was issued after the pathological analysis.
The assay data were calculated and processed statistically using Microsoft Office Excel 2007 software. Unless otherwise specified, the data were expressed as mean±standard error (Mean±SE), and t-test was used for comparison between two groups.

COC1=C(OC)C(=O)C(CCCCCCCCCCOC(=O)Cc2c(C)n(C(=O)c3ccc(Cl)cc3)c3ccc(OC)cc23)=C(C)C1=O [compound of formula (I)]
solubility in organic solvents [1]: easily soluble
proportion of proliferating cells (EDU) (NCI-H460 cells; 48 hours, vs CTL (0 μM)): significantly reduced
cell proliferation under FBS stimulation (EDU) (NCI-H460 cells; FBS increased to 20% for last 6 h): can inhibit the cell proliferation effect
serum urea nitrogen value ([2]; R01 high-dosage group (36 mg/kg bid) with cisplatin 10 mg/kg, P<0.05): significantly lower than that of the model group
serum urea nitrogen value vs model group ([2]; R01 low-dosage group (6 mg/kg bid) with cisplatin 10 mg/kg): no significant difference
serum urea nitrogen value vs model group ([2]; R01 medium-dosage group (18 mg/kg bid) with cisplatin 10 mg/kg): no significant difference
Urea nitrogen (Bun) level after the assay, x (mean) ([2]; R01 6 mg/kg): 16.1 mg/dL
Urea nitrogen (Bun) level after the assay, x (mean) ([2]; R01 18 mg/kg): 16.1 mg/dL
Urea nitrogen (Bun) level after the assay, x (mean) ([2]; R01 36 mg/kg): 13.7 mg/dL
Urea nitrogen (Bun) level after the assay ([2]; R01 6 mg/kg, listed as R01, 6 mg/kg): 28.3 mg/dL and 29.25 mg/dL and 10.62 mg/dL and 11.72 mg/dL and 13.85 mg/dL and 4.91 mg/dL and 14.1 mg/dL
Urea nitrogen (Bun) level after the assay ([2]; R01 18 mg/kg, listed as R01, 18 mg/kg): 13.41 mg/dL and 15.83 mg/dL and 19.59 mg/dL and 14.73 mg/dL and 10.38 mg/dL and 22 mg/dL and 16.55 mg/dL
Urea nitrogen (Bun) level after the assay ([2]; R01 36 mg/kg, listed as R01, 36 mg/kg): 12.39 mg/dL and 12.73 mg/dL and 14.32 mg/dL and 14.34 mg/dL and 9.98 mg/dL and 14 mg/dL and 17.8 mg/dL
